Test results reported in PMC7932537, “Quantitative profiling of protease specificity” (PLoS Computational Biology, 2021).

Legend:
[1] = system: MMP-2; test: N-terminomic (TMT) analysis of MMP-treated HEK293 secretome: isotopic enrichment of novel N-termini; format: biochemical, human; settings: for isotopic enrichment (log2(ratio)): MMP2 cleavages in HEK293 cell proteins, determined by LC-MS/MS, novel N-termini, sections log2(ratio) >3σ, 2σ-3σ, 1σ-2σ, RP above 4.5
Procedure: (§1) This was done to achieve a reasonable compromise between the false positive and false negative rates based on the statistical model developed by the authors. […] (See Methods for details).
(§2) HEK293 cells were seeded in 150-mm tissue culture dishes (Corning) and grown to confluence. The confluent cultures were washed with PBS several times to remove serum proteins and kept in serum-free DMEM supplemented with 1 μM GM6001 for 72 hours at 37 C, 5% CO2. The conditioned media was centrifuged at 10,000 x g for 30 minutes at 4 C and concentrated ~100-fold using Centricon Plus-70 (AMD Millipore) 3-kDa m.w. cut-off ultrafilter, and the buffer was exchanged to 50 mM HEPES pH 7.0 containing 150 mM NaCl and 10 mM CaCl2 (Reaction Buffer) using a PD-10 desalting column (GE Healthcare). Aliquots containing 240 μg total protein were incubated at 37 C in the presence of 750 nM MMP2 or 9 or the Reaction Buffer alone for 2 hours. Each reaction was carried out in duplicate. The reactions were stopped by addition of 20 mM EDTA and subjected to denaturation/reduction (4M Urea and 10 mM TCEP, 1 h, 22°C) and alkylation (20 mM iodoacetamide, 30 min, 22°C, in dark). […] The TMT-labeled samples were pooled together, and subjected to TCA precipitation (20% TCA, 16 h, 4°C). Each pellet was washed with -20°C acetone, recovered in 50 mM Tris-HCl pH 8.0, and then digested with trypsin/Lys-C (Promega) for 16 h at 37°C. Digestions were stopped with 0.2% TFA and centrifuged to remove insoluble material. The supernatants were then desalted using Sep-Pak C18 cartridge (50 mg), and then lyophilized.
(§3) Dried pooled sample was reconstituted in 20 mM ammonium formate pH ~10 and fractionated using a Waters Acquity BEH C18 column (2.1x 15 cm, 1.7 μm pore size) mounted on an M-Class Ultra Performance Liquid Chromatography (UPLC) system (Waters). […] A total of 32 fractions were collected and pooled in a non-contiguous manner into 16 total fractions. Pooled fractions were dried to completeness in a SpeedVac concentrator prior to mass spectrometry analysis.
(§4) Dried peptide fractions were reconstituted with 2% ACN-0.1% FA and analyzed by LC-MS/MS using a Proxeon EASY nanoLC system (Thermo Fisher Scientific) coupled to a Q-Exactive Plus mass spectrometer (Thermo Fisher Scientific). […] The mass spectrometer was operated in positive data-dependent acquisition mode. MS1 spectra were measured with a resolution of 70,000 (AGC target: 1e6; mass range: 350–1700 m/z).
(§5) The false discovery rate (FDR) filter for spectrum and protein identification was set to 1%. Carbamidomethylation of cysteines was searched as a fixed modification, while oxidation of methionines and N-terminal acetylation were searched as variable modifications. Enzyme was set to trypsin in a semispecific mode and a maximum of two missed cleavages was allowed for searching. To obtain quantification of the TMT-labeled N-termini, two independent searches were performed–one with TMT10plex MS2 N-terminal reporter quantification and the other for quantification of N-terminal and lysine sidechain.

[2] = system: MMP-9; test: as above; format: biochemical, human; settings: for isotopic enrichment (log2(ratio)) (acc.to MMP9): HEK293 proteins; for isotopic enrichment (log2(ratio)): MMP9 cleavages in HEK293 cell proteins, determined by LC-MS/MS, log2(ratio) range (>3σ, 2σ-3σ, 1σ-2σ)
Procedure: as §1, §2, §3, §4, §5

[3] = MMP2 cleaved HEK293 proteins, common set of MMP2-9 selectome, LC-MS/MS
[4] = MS detected cleavage sequence, HEK293 proteins, common MMP2-9 selectome
[5] = MMP9, common set of MMP2-9 selectome, LC-MS/MS
[6] = MS detected cleavage sequence, common MMP2-9 selectome
[7] = MS detected cleavage sequence, HEK293 proteins, unique part of MMP2 selectome
[8] = MS detected cleavage sequence, unique part of MMP2 selectome

| Substance | isotopic enrichment (log2(ratio)) (acc.to MMP2) [1, 3] | isotopic enrichment (log2(ratio)) (acc.to MMP2) [1, 4] | isotopic enrichment (log2(ratio)) (acc.to MMP9) [2, 5] | isotopic enrichment (log2(ratio)) [2] | isotopic enrichment (log2(ratio)) (acc.to MMP9) [2, 6] | isotopic enrichment (log2(ratio)) [1] | isotopic enrichment (log2(ratio)) (acc.to MMP2) [1, 7] | isotopic enrichment (log2(ratio)) (acc.to MMP9) [2, 8] |
| --- | --- | --- | --- | --- | --- | --- | --- | --- |
| FSLFG-LGGEPG | 1.417 | 1.417 log2(ratio) | 2.104 | 2.104 | 2.104 log2(ratio) |  |  |  |
| FSVSS-LAEGSV | 1.257 |  | 1.22 |  |  | 1.257 log2(ratio) |  |  |
| GEVQA-MLGQST |  | 0.5656 log2(ratio) |  | 1.4957 | 1.4957 log2(ratio) |  |  |  |
| GFGRG-LSDKKS | 1.9486 | 1.9486 log2(ratio) | 2.021 | 2.021 | 2.021 log2(ratio) |  |  |  |
| GFLAW-LYNESP | 2.43 | 2.43 log2(ratio) | 1.774 | 1.774 | 1.774 log2(ratio) |  |  |  |
| GGGSA-LAGGAG |  |  |  |  |  |  | 3.0018 log2(ratio) | 2.488 log2(ratio) |
| GLPRE-LAEAVA |  | 0.7485 log2(ratio) |  | 2.272 | 2.272 log2(ratio) |  |  |  |
| GMPGE-ISEHEG | 2.198 | 2.198 log2(ratio) | 2.131 | 2.131 | 2.131 log2(ratio) |  |  |  |
| GRSAP-LAAGCP |  |  |  |  |  |  | 3.5097 log2(ratio) | 3.246 log2(ratio) |
| GRTLG-LYGKDQ | 2.467 | 2.467 log2(ratio) | 3.7845 | 3.7845 | 3.7845 log2(ratio) |  |  |  |
| GSPDA-LQNPCY |  | 0.926 log2(ratio) |  | 3.536 | 3.536 log2(ratio) |  |  |  |
| GYIGT-YCGQPV |  |  |  |  |  |  | 2.548 log2(ratio) | 2.478 log2(ratio) |
| HLNRG-FHQEVF |  |  |  |  |  |  | 1.531 log2(ratio) | 1.782 log2(ratio) |
| HLVRN-IQLEQP | 3.263 | 3.263 log2(ratio) | 3.981 | 3.981 | 3.981 log2(ratio) |  |  |  |
| IFLRE-LISNAS | 1.176 | 1.176 log2(ratio) | 1.628 | 1.628 | 1.628 log2(ratio) |  |  |  |
| ISPGM-IKDCGA | 1.183 | 1.183 log2(ratio) | 2.036 | 2.036 | 2.036 log2(ratio) |  |  |  |

| Substance | isotopic enrichment (log2(ratio)) (acc.to MMP2) [1, 3] | isotopic enrichment (log2(ratio)) (acc.to MMP2) [1, 4] | isotopic enrichment (log2(ratio)) (acc.to MMP9) [2, 5] | isotopic enrichment (log2(ratio)) [2] | isotopic enrichment (log2(ratio)) (acc.to MMP9) [2, 6] | isotopic enrichment (log2(ratio)) [1] | isotopic enrichment (log2(ratio)) (acc.to MMP2) [1, 7] | isotopic enrichment (log2(ratio)) (acc.to MMP9) [2, 8] |
| --- | --- | --- | --- | --- | --- | --- | --- | --- |
| KRIAN-LQTDLS | 1.918 | 1.918 log2(ratio) | 1.791 | 1.791 | 1.791 log2(ratio) |  |  |  |
| KYIGN-MHGNEA | 1.124 |  | 1.07 |  |  | 1.124 log2(ratio) |  |  |
| LDVGG-LQETDK | 3.076 | 3.076 log2(ratio) | 1.718 | 1.718 | 1.718 log2(ratio) |  |  |  |
| LFIGG-LSFETT |  |  |  |  |  |  | 2.3505 log2(ratio) | 1.4957 log2(ratio) |
| LPAMP-MQGGAQ | 3.329 | 3.329 log2(ratio) | 3.876 | 3.876 | 3.876 log2(ratio) |  |  |  |
| MEPVA-HFGLGK |  | 0.3448 log2(ratio) |  | 1.731 | 1.731 log2(ratio) |  |  |  |
| MPMF-IVNTNV |  | 0.8319 log2(ratio) |  | 1.66 | 1.66 log2(ratio) |  |  |  |
| MSPQL-LYDAAP |  | 0.5656 log2(ratio) |  | 1.465 | 1.465 log2(ratio) |  |  |  |
| MVPRA-VYLPNC | 1.989 | 1.989 log2(ratio) | 2.491 | 2.491 | 2.491 log2(ratio) |  |  |  |
| NFIQS-IISTVE |  |  |  |  |  | 0.903 log2(ratio) |  | 1.111 log2(ratio) |
| NFLSW-LYNDSP | 1.971 | 1.971 log2(ratio) | 1.57 | 1.57 | 1.57 log2(ratio) |  |  |  |
| NFWGA-LSADGY |  |  |  |  |  |  | 1.683 log2(ratio) | 0.9855 log2(ratio) |
| PALAY-LASAPP |  |  |  |  |  |  | 1.345 log2(ratio) | 0.4436 log2(ratio) |
| PEPES-WNAAQH |  |  |  |  |  |  | 1.66 log2(ratio) | 1.956 log2(ratio) |
| PEPPP-LSGAPQ | 1.367 | 1.367 log2(ratio) | 1.9855 | 1.9855 | 1.9855 log2(ratio) |  |  |  |
